Assay results as given in US7598261B2, “Spirocyclic heterocyclic derivatives and methods of their use” (Adolor Corporation, priority 2005, dated 2009).

Legend:
[1] = target: T1, cloned human δ opioid receptor (Homo sapiens, UniProt P41143); assay: [3H]diprenorphine receptor binding, δ opioid receptor; settings: inhibition of [3H]diprenorphine binding, read-out: affinity (Ki value), delta opioid receptor
T1 construct: expressed in transfected cells; host or cells: CHO cells (membrane preparations)
Method: (§1) The potencies of the compounds listed in Table 2 were determined by testing the ability of a range of concentrations of each compound to inhibit the binding of the non-selective opioid antagonist, [^3H]diprenorphine, to the cloned human μ, κ, and δ opioid receptors, expressed in separate cell lines. IC50 values were obtained by nonlinear analysis of the data using GraphPad Prism version 3.00 for Windows (GraphPad Software, San Diego). Ki values were obtained by Cheng-Prusoff corrections of IC50 values.
(§2) The receptor binding method (DeHaven and DeHaven-Hudkins, 1998) was a modification of the method of Raynor et al. (1994). After dilution in buffer A and homogenization as before, membrane proteins (10-80 μg) in 250 μL were added to mixtures containing test compound and [^3H]diprenorphine (0.5 to 1.0 nM, 40,000 to 50,000 dpm) in 250 μL of buffer A in 96-well deep-well polystyrene titer plates (Beckman). […] The filters were rinsed 4 times with 1 mL of cold 50 mM Tris HCl, pH 7.8 and radioactivity remaining on the filters determined by scintillation spectroscopy. Nonspecific binding was determined by the minimum values of the titration curves and was confirmed by separate assay wells containing 10 μM naloxone. Ki values were determined by Cheng-Prusoff corrections of IC50 values derived from nonlinear regression fits of 12 point titration curves using GraphPad Prism® version 3.00 for Windows (GraphPad Software, San Diego, Calif.).
To determine the equilibrium dissociation constant for the inhibitors (Ki), radioligand bound (cpm) in the presence of various concentrations of test compounds was measured. The concentration to give half-maximal inhibition (EC50) of radioligand binding was determined from a best nonlinear regression fit to the following equation, […]
The potencies of the compounds were determined by testing the ability of a range of concentrations of each compound to inhibit the binding of the non-selective opioid antagonist, [^3H]diprenorphine, to the cloned human μ, κ, and δ opioid receptors, expressed in separate cell lines. […]

[2] = target: T1, cloned human δ opioid receptor; assay: Receptor-mediated [35S]GTPγS binding (agonist potency); format: biochemical; settings: stimulation of [35S]GTPγS binding, membranes with cloned human δ opioid receptor; read-out: in vitro δ agonist activity (EC50)
Method: The potency and efficacy of compounds at each of the receptors are assessed by modifications of the methods of Selley et al., 1997 and Traynor and Nahorski, 1995 using receptor-mediated [^35S]GTPγS binding in the same membrane preparations used to measure receptor binding. Assays are carried out in 96-well FlashPlates® (Perkin Elmer Life Sciences, Inc, Boston, Mass.). Membranes prepared from CHO cells expressing the appropriate receptor (50-100 μg of protein) are added to assay mixtures containing agonist with or without antagonists, 100 pM [^35S]GTPγS (approx. 100,000 dpm), 3.0 μM GDP, 75 mM NaCl, 15 mM MgCl2, 1.0 mM ethylene glycol-bis(β-aminoethyl ether)-N,N,N′,N′-tetracetic acid, 1.1 mM dithiothreitol, 10 μg/mL leupeptin, 10 μg/mL pepstatin A, 200 μg/mL bacitracin, and 0.5 μg/mL aprotinin in 50 mM Tris-HCl buffer, pH 7.8. After incubation at room temperature for one hour, the plates are sealed, centrifuged at 800×g in a swinging bucket rotor for 5 min and bound radioactivity determined with a TopCount microplate scintillation counter (Packard Instrument Co., Meriden, Conn.).
EC50 values for agonists are determined from nonlinear regression fits of 8- or 12-point titration curves to the 4-parameter equation for a sigmoidal dose-response with a slope factor of 1.0 using GraphPad Prism® version 3.00 for Windows (GraphPad Software, San Diego, Calif.).
The potencies of the compounds were determined by testing the ability of a range of concentrations of each compound to inhibit the binding of the non-selective opioid antagonist, [^3H]diprenorphine, to the cloned human μ, κ, and δ opioid receptors, expressed in separate cell lines. […] These compounds display high selectivity δ/κ and δ/μ (at least 10-fold). The potencies of the agonists were assessed by their abilities to stimulate [^35S]GTPγS binding to membranes containing the cloned human δ opioid receptors.

[3] = target: T2, cloned human μ opioid receptor (Homo sapiens, UniProt P35372); assay: [3H]diprenorphine receptor binding, μ opioid receptor; settings: inhibition of [3H]diprenorphine binding, read-out: affinity (Ki value), mu opioid receptor
T2 construct: expressed in transfected cells; host or cells: CHO cells (membrane preparations)
Method: as §1
as §2, with “(1994).” for “(1994). After dilution in buffer A and homogenization as before, membrane proteins (10-80 μg) in 250 μL were added to mixtures containing test compound and [^3H]diprenorphine (0.5 to 1.0 nM, 40,000 to 50,000 dpm) in 250 μL of buffer A in 96-well deep-well polystyrene titer plates (Beckman).”
(§3) To determine the equilibrium dissociation constant for the inhibitors (Ki), radioligand bound (cpm) in the presence of various concentrations of test compounds was measured. […]

[4] = target: T3, cloned human κ opioid receptor (Homo sapiens, UniProt P41145); assay: [3H]diprenorphine receptor binding, κ opioid receptor; settings: inhibition of [3H]diprenorphine binding, read-out: affinity (Ki value), kappa opioid receptor
T3 construct: expressed in transfected cells; host or cells: CHO cells (membrane preparations)
Method: as §1
as §2, with “(1994).” for “(1994). After dilution in buffer A and homogenization as before, membrane proteins (10-80 μg) in 250 μL were added to mixtures containing test compound and [^3H]diprenorphine (0.5 to 1.0 nM, 40,000 to 50,000 dpm) in 250 μL of buffer A in 96-well deep-well polystyrene titer plates (Beckman).”
as §3

T1 sequence (P41143 whole entry): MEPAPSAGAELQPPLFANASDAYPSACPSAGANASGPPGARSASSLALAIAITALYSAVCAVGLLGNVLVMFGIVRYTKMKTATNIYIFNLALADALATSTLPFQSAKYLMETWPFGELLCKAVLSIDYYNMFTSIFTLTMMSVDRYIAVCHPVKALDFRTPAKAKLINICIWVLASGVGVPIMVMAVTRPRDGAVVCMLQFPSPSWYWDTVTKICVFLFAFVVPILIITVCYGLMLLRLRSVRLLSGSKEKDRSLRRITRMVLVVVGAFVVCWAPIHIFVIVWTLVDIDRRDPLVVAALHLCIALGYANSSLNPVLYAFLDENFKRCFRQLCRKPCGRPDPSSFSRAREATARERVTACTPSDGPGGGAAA
T3 sequence (P41145 whole entry): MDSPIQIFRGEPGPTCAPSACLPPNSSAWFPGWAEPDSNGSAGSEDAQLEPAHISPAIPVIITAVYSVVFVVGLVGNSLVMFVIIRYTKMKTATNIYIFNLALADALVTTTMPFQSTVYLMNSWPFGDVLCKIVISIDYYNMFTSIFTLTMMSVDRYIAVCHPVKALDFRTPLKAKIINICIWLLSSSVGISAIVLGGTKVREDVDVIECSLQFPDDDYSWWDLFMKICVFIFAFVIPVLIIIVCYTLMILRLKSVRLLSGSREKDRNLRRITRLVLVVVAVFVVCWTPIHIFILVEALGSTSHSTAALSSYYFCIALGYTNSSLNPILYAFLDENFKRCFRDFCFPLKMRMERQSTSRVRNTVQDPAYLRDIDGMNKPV
T2 sequence (P35372 whole entry): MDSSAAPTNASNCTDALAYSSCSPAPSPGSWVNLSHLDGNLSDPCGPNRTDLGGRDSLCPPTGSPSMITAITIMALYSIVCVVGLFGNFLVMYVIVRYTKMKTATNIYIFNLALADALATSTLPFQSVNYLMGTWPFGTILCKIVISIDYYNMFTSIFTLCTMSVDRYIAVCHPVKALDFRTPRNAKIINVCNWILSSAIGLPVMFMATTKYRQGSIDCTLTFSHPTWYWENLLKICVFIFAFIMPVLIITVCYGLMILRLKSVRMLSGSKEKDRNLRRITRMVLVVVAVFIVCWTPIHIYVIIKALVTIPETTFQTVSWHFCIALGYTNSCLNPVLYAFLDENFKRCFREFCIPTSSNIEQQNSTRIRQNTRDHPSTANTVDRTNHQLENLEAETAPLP

Compound: CCN(CC)C(=O)c1ccc(C2CC3(CCNCC3)Oc3ccc(F)cc32)c(O)c1 (single isomer, unassigned) [61B]
- Ki [1]: 75 nM
- EC50 [2]: 1280 nM

Compound: CCN(CC)C(=O)c1ccc(C2CC3(CCNCC3)Oc3ccc(F)cc32)c(O)c1 (single isomer, unassigned) [61A]
- Ki [1]: 0.59 nM
- EC50 [2]: 16.8 nM

Compound: CC(=O)c1ccc(C2=CC3(CCNCC3)Oc3ccccc32)cc1 [33M]
- Ki [1]: 9.7 nM
- Ki [3]: > 1000 nM
- Ki [4]: > 1000 nM
- EC50 [2]: 287 nM
